Assay results: patent US20040096894A1, “Crystal structures of P- selectin, P- and E-selectin complexes, and uses thereof” (priority 2000, published 2004)
One block for each molecule: values may come before it. Numbered stars: 1 amine (or outer) side, 2 acyl side, 3 side chain; on linkers, the order of the positions; unused ones are H or OH. Square brackets hold non-standard residues; d marks the D form. Peptide text beside a SMILES is read from it. X1 = CC(=O)N[C@H]1[C@H](OC[C@H]2O[C@H](O[C@H](C)[C@H](N[*:1])C(=O)[*:2])[C@H](NC(C)=O)[C@@H](O[C@@H]3O[C@H](CO)[C@H](O)[C@H](O[C@]4(C(=O)O)C[C@H](O)[C@@H](NC(C)=O)[C@H]([C@H](O)[C@H](O)CO)O4)[C@H]3O)[C@H]2O)O[C@H](CO)[C@@H](O[C@@H]2O[C@H](CO)[C@H](O)[C@H](O[C@]3(C(=O)O)C[C@H](O)[C@@H](NC(C)=O)[C@H]([C@H](O)[C@H](O)CO)O3)[C@H]2O)[C@@H]1O[C@@H]1O[C@@H](C)[C@@H](O)[C@@H](O)[C@@H]1O; sY = N[C@@H](Cc1ccc(OS(=O)(=O)O)cc1)C(=O)O; pGlu = O=C1CC[C@@H](C(=O)O)N1

What was measured:
[1] = target: T1, P-LE (lectin/EGF domains of P-selectin) (Homo sapiens, UniProt P16109); test: BIAcore: inhibition of P-LE binding to immobilized sPSGL and SGP-3 by co-injected solution-phase peptide; conditions: P-LE at 800 nM; solution-phase inhibitor at 20 μM
T1 construct: The lectin-EGF (LE) domains (153 amino acids) of P-selectin (P-LE) and E-selectin (E-LE); IgG1 Fc (CH2-CH3 region) (C, cleaved yes); made in house; host or cells: CHO cells
T1 sequence (P16109 42-198): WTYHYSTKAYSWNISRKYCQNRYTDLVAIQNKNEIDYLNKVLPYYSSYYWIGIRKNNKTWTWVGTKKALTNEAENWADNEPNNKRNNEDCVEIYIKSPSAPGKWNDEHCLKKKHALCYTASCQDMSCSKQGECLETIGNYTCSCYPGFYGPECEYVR
Method: FIGS. 1B-1 and 1B-2: Representative BIAcore sensorgrams of solution-phase P-LE binding to immobilized PSGL-1 constructs. P-LE (at 800 nM concentration) was injected over sPSGL (FIGS. 1B-1) and SGP-3 (FIGS. 1B-2). […] P-LE binding to sPSGL and SGP-3 was inhibited by co-injection with solution-phase SGP-3 (dotted line) but not by a synthetic peptide containing no tyrosine sulfation or glycosylation (dashed line), both at 20 μM concentration. All curves reflect specific binding produced by subtracting non-specific binding from total binding.
P-LE/19ek Peptide Binding Studies. Surface plasmon resonance was performed on BIAcore 2000 and 3000 instruments at 25° C. using streptavidin-coated sensor chips (BIAcore) and HBS-P buffer (BIAcore; 10 mM HEPES (pH 7.4), 150 mM NaCl, and 0.005% polysorbate 20 (v/v)) adjusted to 1 mM each CaCl2 and MgCl2. The 19ek peptides and sPSGL, a fucosyltransferase-VII modified version of the entire dimeric extracellular domain of PSGL-1 (Croce et al., 1998), were biotinylated at Lys residues with Sulfo-NHS-LC-Biotin (Pierce). Following biotinylation, sPSGL was reacted with immobilized P-selectin in order to isolate functional material (Sako et al., 1995). […] Glycosylated P-LE and E-LE, quantitated by experimentally determined extinction coefficients (280 nm), were injected over the19ek peptide, sPSGL and control surfaces at 40 μL/min. […]

[2] = test system: E-selectin relative P-selectin; conditions: Poppe et al., 1997; cited from earlier work
[3] = target: T1, P-LE (lectin/EGF domains of P-selectin); test: BIAcore surface plasmon resonance: solution-phase P-LE binding to immobilized sPSGL and PSGL-1 19ek peptides; conditions: immobilized ligand
Text: FIGS. 1C-1-1C-6: Binding affinity determinations of solution-phase P-LE reacted with immobilized sPSGL and purified 19ek peptides by BIAcore analysis. First row, left-to-right: sPSGL (FIGS. 1C-1), SGP-3 (FIGS. 1C-2) and SGP-2 (FIGS. 1C-3). Second row, left-to-right: SGP-1 (FIGS. 1C-4), GP-1 (FIGS. 1C-5) and SP-1 (FIGS. 1C-6). P-LE at the indicated concentrations was reacted with immobilized ligands (to determine the total binding signal) and against control […] containing no ligand (to determine non-specific binding). The equilibrium responses (Req) at each concentration of P-LE are shown. At each P-LE concentration tested, specific binding signals (squares) were determined by subtracting non-specific responses (triangles) from total binding signals (diamonds). KDs and standard deviations (shown) were determined by line-fitting of specific binding curves using BIAevaluation software (BIAcore) and are the products of three-to-ten separate experiments. KD determinations using line-fitting agreed well with values determined by linear regression analysis of Scatchard plots (not shown).
P-LE/19ek Peptide Binding Studies. […] Glycosylated P-LE and E-LE, quantitated by experimentally determined extinction coefficients (280 nm), were injected over the19ek peptide, sPSGL and control surfaces at 40 μL/min. […]

Molecule: CSCC[C@H](NC(=O)[C@H](CCSC)NC(=O)[C@@H]1CCCN1C(=O)[C@H](CCCNC(=N)N)NC(=O)[C@@H]1CCCN1C(=O)[C@@H]1CCCN1C(=O)[C@H](CCC(=O)O)NC(=O)[C@@H](NC(=O)[C@H](CCC(=O)O)NC(=O)[C@@H]1CCCN1C(=O)[C@H](CC(C)C)NC(=O)[C@H](Cc1ccccc1)NC(=O)[C@H](CC(=O)O)NC(=O)[C@H](Cc1ccc(OS(=O)(=O)O)cc1)NC(=O)[C@H](CC(=O)O)NC(=O)[C@H](CC(C)C)NC(=O)[C@H](Cc1ccc(OS(=O)(=O)O)cc1)NC(=O)[C@H](CCC(=O)O)NC(=O)[C@H](Cc1ccc(OS(=O)(=O)O)cc1)NC(=O)[C@H](CCC(=O)O)NC(=O)[C@@H](NC(=O)[C@H](C)NC(=O)[C@@H]1CCC(=O)N1)[C@@H](C)O)[C@@H](C)O[C@H]1O[C@H](CO[C@@H]2O[C@H](CO)[C@@H](O[C@@H]3O[C@H](CO)[C@H](O)[C@H](O[C@]4(C(=O)O)C[C@H](O)[C@@H](NC(C)=O)[C@H]([C@H](O)[C@H](O)CO)O4)[C@H]3O)[C@H](O[C@@H]3O[C@@H](C)[C@@H](O)[C@@H](O)[C@@H]3O)[C@H]2NC(C)=O)[C@H](O)[C@H](O[C@@H]2O[C@H](CO)[C@H](O)[C@H](O[C@]3(C(=O)O)C[C@H](O)[C@@H](NC(C)=O)[C@H]([C@H](O)[C@H](O)CO)O3)[C@H]2O)[C@H]1NC(C)=O)C(=O)N[C@@H](CC(=O)O)C(=O)N[C@@H](CC(=O)O)C(=O)N[C@@H](CC(=O)O)C(=O)N[C@@H](CC(=O)O)C(=O)N[C@@H](CCCCN)C(=O)O [SGP-3] ([pGlu]ATE[sY]E[sY]LD[sY]DFLPE[X1]EPPRPMMDDDDK-OH; C-terminus assumed)
inhibition of P-LE binding to immobilized sPSGL and SGP-3 by co-injection [1]: inhibited

Molecule: sialyl Lewis^X (SLe^X, NeuNAc2,3Gal1,4[Fuc1,3] GlcNAc) tetrasaccharide
higher SLe^X binding affinity for E-selectin relative P-selectin [2]: approximately 10 fold

binding affinity of P-LE in words, compared with SGP-3 or the modified species [3]: essentially identical affinity
Molecule: sPSGL: Fucosyltransferase-VII modified version of the entire dimeric extracellular domain of PSGL-1
